Test: Trolox relative activity in ORAC method (antiradical activity in serum)
Format: biochemical, human
Conditions: for Trolox relative activity: ORAC method, human blood serum, 60-μM 4-vinyl-2,6-dimethoxyphenol, 300-μM α-tocopherol
Method: 2) Trolox Relative Activity in ORAC Method
10 μl of a test substance in a designated concentration, or
6-hydroxy-2,5,7,8-tetramethylchroman-2-carboxylic acid (Trolox) solution is added to 10 μl of 200-fold diluted solution of human blood serum. Then, 180 μl of 3.73-mg/l β-phycoerythrin (β-PE) is added, and the mixture is preheated at 37° C. for 1 min. 10 μl of 80-mM 2,2′-azobis(2-amidinopropane)-dihydrochloride (AAPH) is then added, and the reaction is started at 37° C. For the dilution of the serum or reagents added, phosphate buffer (75 mM, pH 7.0) is used. As a control, this phosphate buffer is used in place of the test substance. Fluorescence intensity (Ex: 540 nm, Em: 565 nm) of the reactant is measured every 2 min after the start of the reaction, and the relationship between the fluorescence intensity (y-axis) and the time x-axis) is plotted on a graph. The area (S) enclosed by the obtained curve, x and y axes is calculated for the test substance, Trolox and the control. The antiradical activity of the test substance in the serum is calculated as a Trolox relative activity using the following equation. Trolox relative activity=(Test substance's S−Control's S)/(Trolox's S−Control's S)×(Trolox's concentration/Test substance's concentration) In this testing system, AAPH generates peroxyradicals, and the peroxyradicals oxidize the substrate β-PE, which results in a reaction to eliminate fluorescence of β-PE. Trolox is a derivative of water-soluble vitamin E, and is used as a standard substance of the antioxidation reaction in this testing system. These reaction substrate and standard substance are those used in an oxygen radical absorbance capacity (ORAC) method. The ORAC method is widely used to obtain antioxydation and antiradical activities of biological samples and natural materials as values relative to those of a standard substance, in an easy and accurate manner. (5) Rancimat Test

C=Cc1cc(OC)c(O)c(OC)c1 [Example 7, 4-vinyl-2,6-dimethoxyphenol]
Trolox relative activity: 0.58
Trolox relative activity in serum relative to α-tocopherol (in serum): approximately 7 folds

Cc1c(C)c2c(c(C)c1O)CC[C@@](C)(CCC[C@H](C)CCC[C@H](C)CCCC(C)C)O2 [compound 1, α-tocopherol, reference compound]
Trolox relative activity: 0.08
